“And” between values parts separate entries of the source, which are not always exact repeats. Equal values may be shown once. ± gives the expanded uncertainty stated by the source.
Assays:
[1] = xn = mol fraction of the nth substance listed; conditions: 100 kPa, Liquid, x2 = 0; for viscosity: Capillary tube (Ostwald / Ubbelohde) method; for mass density: Vibrating tube method
[2] = refractive index (Na D-line) (dimensionless); xn = mol fraction of the nth substance listed; conditions: Liquid, Standard Abbe refractometry, x2 = 0
[3] = refractive index (Na D-line) (dimensionless); conditions: 101.33 kPa, Liquid, Standard Abbe refractometry
[4] = 100 kPa, Liquid; for viscosity: Capillary tube (Ostwald / Ubbelohde) method; for mass density: Vibrating tube method

| SMILES | viscosity ([1]; 293.15 K) [mPa·s] | mass density ([1]; 293.15 K) [kg/m3] | viscosity ([1]; 298.15 K) [mPa·s] | mass density ([1]; 298.15 K) [kg/m3] | viscosity ([1]; 303.15 K) [mPa·s] | mass density ([1]; 303.15 K) [kg/m3] | viscosity ([1]; 308.15 K) [mPa·s] | mass density ([1]; 308.15 K) [kg/m3] | viscosity ([1]; 313.15 K) [mPa·s] | mass density ([1]; 313.15 K) [kg/m3] | viscosity ([1]; 318.15 K) [mPa·s] | mass density ([1]; 318.15 K) [kg/m3] | viscosity ([1]; 323.15 K) [mPa·s] | mass density ([1]; 323.15 K) [kg/m3] | refractive index ([2]; 298.15 K, 100 kPa) | refractive index ([2]; 308.15 K, 100 kPa) | refractive index ([2]; 318.15 K, 100 kPa) | refractive index ([3]; 298.15 K) | refractive index ([3]; 308.15 K) | refractive index ([3]; 318.15 K) | also measured |
| --- | --- | --- | --- | --- | --- | --- | --- | --- | --- | --- | --- | --- | --- | --- | --- | --- | --- | --- | --- | --- | --- |
| CCCCCCCCCCC [undecane] + C1CC[C@H]2CCCC[C@H]2C1 | 1.17 ± 0.014 | 740.28 ± 0.32 | 1.086 ± 0.014 | 736.63 ± 0.32 | 1.004 ± 0.013 | 732.93 ± 0.32 | 0.931 ± 0.013 | 729.22 ± 0.32 | 0.862 ± 0.013 | 725.51 ± 0.32 | 0.801 ± 0.012 | 721.78 ± 0.32 | 0.749 ± 0.012 | 718.04 ± 0.31 | 1.4138 ± 0.0013 | 1.4095 ± 0.0013 | 1.4058 ± 0.0013 |  |  |  |  |
| CCCCCCCCC [nonane] |  |  |  |  |  |  |  |  |  |  |  |  |  |  |  |  |  | 1.4026 ± 0.0013 | 1.3983 ± 0.0013 | 1.3937 ± 0.0013 | viscosity ([4]; 293.15 K): 0.724 ± 0.011 mPa·s; mass density ([4]; 293.15 K): 717.94 ± 0.24 kg/m3; viscosity ([4]; 298.15 K): 0.681 ± 0.011 mPa·s; mass density ([4]; 298.15 K): 714.11 ± 0.24 kg/m3; viscosity ([4]; 303.15 K): 0.64 ± 0.011 mPa·s; mass density ([4]; 303.15 K): 710.2 ± 0.24 kg/m3; viscosity ([4]; 308.15 K): 0.604 ± 0.011 mPa·s; mass density ([4]; 308.15 K): 706.29 ± 0.25 kg/m3; viscosity ([4]; 313.15 K): 0.571 ± 0.011 mPa·s; mass density ([4]; 313.15 K): 702.35 ± 0.25 kg/m3; viscosity ([4]; 318.15 K): 0.547 ± 0.011 mPa·s; mass density ([4]; 318.15 K): 698.4 ± 0.25 kg/m3; viscosity ([4]; 323.15 K): 0.521 ± 0.011 mPa·s; mass density ([4]; 323.15 K): 694.43 ± 0.25 kg/m3 |
| CCCCCCCCCCC [undecane] |  |  |  |  |  |  |  |  |  |  |  |  |  |  |  |  |  | 1.4138 ± 0.0013 | 1.4095 ± 0.0013 | 1.4058 ± 0.0013 | viscosity ([4]; 293.15 K): 1.17 ± 0.014 mPa·s; mass density ([4]; 293.15 K): 740.28 ± 0.32 kg/m3; viscosity ([4]; 298.15 K): 1.086 ± 0.014 mPa·s; mass density ([4]; 298.15 K): 736.63 ± 0.32 kg/m3; viscosity ([4]; 303.15 K): 1.004 ± 0.013 mPa·s; mass density ([4]; 303.15 K): 732.93 ± 0.32 kg/m3; viscosity ([4]; 308.15 K): 0.931 ± 0.013 mPa·s; mass density ([4]; 308.15 K): 729.22 ± 0.32 kg/m3; viscosity ([4]; 313.15 K): 0.862 ± 0.013 mPa·s; mass density ([4]; 313.15 K): 725.51 ± 0.32 kg/m3; viscosity ([4]; 318.15 K): 0.801 ± 0.012 mPa·s; mass density ([4]; 318.15 K): 721.78 ± 0.32 kg/m3; viscosity ([4]; 323.15 K): 0.749 ± 0.012 mPa·s; mass density ([4]; 323.15 K): 718.04 ± 0.31 kg/m3 |
| CCCCCCCCCC [decane] + C1CC[C@H]2CCCC[C@@H]2C1 | 0.916 ± 0.012 | 731.14 ± 0.23 | 0.852 ± 0.012 | 727.43 ± 0.23 | 0.799 ± 0.012 | 723.64 ± 0.23 | 0.751 ± 0.011 | 719.84 ± 0.23 | 0.709 ± 0.011 | 716.03 ± 0.23 | 0.667 ± 0.011 | 712.2 ± 0.23 | 0.632 ± 0.011 | 708.36 ± 0.23 |  |  |  |  |  |  | refractive index ([2]; 298.15 K, 101 kPa): 1.4098 ± 0.0007; refractive index ([2]; 308.15 K, 101 kPa): 1.4052 ± 0.0007; refractive index ([2]; 318.15 K, 101 kPa): 1.4 ± 0.0007 |
| C1CC[C@H]2CCCC[C@@H]2C1 [trans-decahydronaphthalene] |  |  |  |  |  |  |  |  |  |  |  |  |  |  |  |  |  | 1.4662 ± 0.0012 | 1.4618 ± 0.0012 | 1.4581 ± 0.0012 | viscosity ([4]; 293.15 K): 2.112 ± 0.015 mPa·s; mass density ([4]; 293.15 K): 869.78 ± 0.13 kg/m3; viscosity ([4]; 298.15 K): 1.925 ± 0.015 mPa·s; mass density ([4]; 298.15 K): 866.07 ± 0.13 kg/m3; viscosity ([4]; 303.15 K): 1.769 ± 0.014 mPa·s; mass density ([4]; 303.15 K): 862.34 ± 0.14 kg/m3; viscosity ([4]; 308.15 K): 1.628 ± 0.013 mPa·s; mass density ([4]; 308.15 K): 858.61 ± 0.14 kg/m3; viscosity ([4]; 313.15 K): 1.505 ± 0.013 mPa·s; mass density ([4]; 313.15 K): 854.88 ± 0.14 kg/m3; viscosity ([4]; 318.15 K): 1.394 ± 0.013 mPa·s; mass density ([4]; 318.15 K): 851.14 ± 0.14 kg/m3; viscosity ([4]; 323.15 K): 1.295 ± 0.012 mPa·s; mass density ([4]; 323.15 K): 847.4 ± 0.14 kg/m3 |
| CCCCCCCCC [nonane] + C1CC[C@H]2CCCC[C@H]2C1 | 0.724 ± 0.011 | 717.94 ± 0.24 | 0.681 ± 0.011 | 714.11 ± 0.24 | 0.64 ± 0.011 | 710.2 ± 0.24 | 0.604 ± 0.011 | 706.29 ± 0.25 | 0.571 ± 0.011 | 702.35 ± 0.25 | 0.547 ± 0.011 | 698.4 ± 0.25 | 0.521 ± 0.011 | 694.43 ± 0.25 | 1.4026 ± 0.0013 | 1.3983 ± 0.0013 | 1.3937 ± 0.0013 |  |  |  |  |
| CCCCCCCCCC [decane] + C1CC[C@H]2CCCC[C@H]2C1 | 0.916 ± 0.012 | 731.14 ± 0.23 | 0.852 ± 0.012 | 727.43 ± 0.23 | 0.799 ± 0.012 | 723.64 ± 0.23 | 0.751 ± 0.011 | 719.84 ± 0.23 | 0.709 ± 0.011 | 716.03 ± 0.23 | 0.667 ± 0.011 | 712.2 ± 0.23 | 0.632 ± 0.011 | 708.36 ± 0.23 | 1.4098 ± 0.0012 | 1.4052 ± 0.0012 | 1.4 ± 0.0012 |  |  |  |  |
| CCCCCCCCC [nonane] + C1CC[C@H]2CCCC[C@@H]2C1 | 0.724 ± 0.011 | 717.94 ± 0.24 | 0.681 ± 0.011 | 714.11 ± 0.24 | 0.64 ± 0.011 | 710.2 ± 0.24 | 0.604 ± 0.011 | 706.29 ± 0.25 | 0.571 ± 0.011 | 702.35 ± 0.25 | 0.547 ± 0.011 | 698.4 ± 0.25 | 0.521 ± 0.011 | 694.43 ± 0.25 | 1.4026 ± 0.0013 | 1.3983 ± 0.0013 | 1.3937 ± 0.0013 |  |  |  |  |
| CCCCCCCCCCC [undecane] + C1CC[C@H]2CCCC[C@@H]2C1 | 1.17 ± 0.014 | 740.28 ± 0.32 | 1.086 ± 0.014 | 736.63 ± 0.32 | 1.004 ± 0.013 | 732.93 ± 0.32 | 0.931 ± 0.013 | 729.22 ± 0.32 | 0.862 ± 0.013 | 725.51 ± 0.32 | 0.801 ± 0.012 | 721.78 ± 0.32 | 0.749 ± 0.012 | 718.04 ± 0.31 | 1.4138 ± 0.0013 | 1.4095 ± 0.0013 | 1.4058 ± 0.0013 |  |  |  |  |
| C1CC[C@H]2CCCC[C@H]2C1 [cis-decahydronaphthalene] |  |  |  |  |  |  |  |  |  |  |  |  |  |  |  |  |  | 1.4776 ± 0.0013 | 1.4736 ± 0.0013 | 1.4696 ± 0.0013 | viscosity ([4]; 293.15 K): 3.355 ± 0.033 mPa·s; mass density ([4]; 293.15 K): 896.85 ± 0.48 kg/m3; viscosity ([4]; 298.15 K): 3.011 ± 0.03 mPa·s; mass density ([4]; 298.15 K): 893.06 ± 0.48 kg/m3; viscosity ([4]; 303.15 K): 2.718 ± 0.028 mPa·s; mass density ([4]; 303.15 K): 889.26 ± 0.48 kg/m3; viscosity ([4]; 308.15 K): 2.47 ± 0.026 mPa·s; mass density ([4]; 308.15 K): 885.46 ± 0.48 kg/m3; viscosity ([4]; 313.15 K): 2.252 ± 0.024 mPa·s; mass density ([4]; 313.15 K): 881.65 ± 0.48 kg/m3; viscosity ([4]; 318.15 K): 2.079 ± 0.022 mPa·s and 2.063 ± 0.022 mPa·s; mass density ([4]; 318.15 K): 877.85 ± 0.47 kg/m3; viscosity ([4]; 323.15 K): 1.912 ± 0.021 mPa·s and 1.898 ± 0.021 mPa·s; mass density ([4]; 323.15 K): 874.05 ± 0.47 kg/m3 |
| CCCCCCCCCC [decane] |  |  |  |  |  |  |  |  |  |  |  |  |  |  |  |  |  | 1.4098 ± 0.0012 | 1.4052 ± 0.0012 | 1.4 ± 0.0012 | viscosity ([4]; 293.15 K): 0.916 ± 0.012 mPa·s; mass density ([4]; 293.15 K): 731.14 ± 0.23 kg/m3; viscosity ([4]; 298.15 K): 0.852 ± 0.012 mPa·s; mass density ([4]; 298.15 K): 727.43 ± 0.23 kg/m3; viscosity ([4]; 303.15 K): 0.799 ± 0.012 mPa·s; mass density ([4]; 303.15 K): 723.64 ± 0.23 kg/m3; viscosity ([4]; 308.15 K): 0.751 ± 0.011 mPa·s; mass density ([4]; 308.15 K): 719.84 ± 0.23 kg/m3; viscosity ([4]; 313.15 K): 0.709 ± 0.011 mPa·s; mass density ([4]; 313.15 K): 716.03 ± 0.23 kg/m3; viscosity ([4]; 318.15 K): 0.667 ± 0.011 mPa·s; mass density ([4]; 318.15 K): 712.2 ± 0.23 kg/m3; viscosity ([4]; 323.15 K): 0.632 ± 0.011 mPa·s; mass density ([4]; 323.15 K): 708.36 ± 0.23 kg/m3 |

Source: the NIST ThermoML archive (doi:10.1021/je400250u)
